Counter-ions that a name gives are not always drawn. Like-named read-outs stand apart in the source and are kept apart here.
Key:
M-NFS-60 cells = test: M-NFS-60 cell proliferation assay (Alamar Blue); format: cell-based, mouse; conditions: read-out: CSF1R M-NFS-60 CTB:IC50
Procedure, shortened: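 Alamar Blue reduction (3 h; 560/590 nm) measured viability after 72 h, 37 °C treatment with nine half-log compound concentrations at 0.5% DMSO. Cells: M-CSF-dependent (20 ng/mL) murine M-NFS-60 in RPMI plus 10% FBS. IC50s, averaged from duplicates, reflect half-maximal inhibition of proliferation relative to control.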

CSF1R = CSF1R (Homo sapiens, UniProt P07333); test: HEK293 CSF1R phosphorylation MSD assay; format: cell-based; set-up: expressed in transfected cells; host or cells: HEK293; conditions: read-out: HEK293 pCSF1R M-CSF MSD:IC50
Sequence of CSF1R (P07333 20-972): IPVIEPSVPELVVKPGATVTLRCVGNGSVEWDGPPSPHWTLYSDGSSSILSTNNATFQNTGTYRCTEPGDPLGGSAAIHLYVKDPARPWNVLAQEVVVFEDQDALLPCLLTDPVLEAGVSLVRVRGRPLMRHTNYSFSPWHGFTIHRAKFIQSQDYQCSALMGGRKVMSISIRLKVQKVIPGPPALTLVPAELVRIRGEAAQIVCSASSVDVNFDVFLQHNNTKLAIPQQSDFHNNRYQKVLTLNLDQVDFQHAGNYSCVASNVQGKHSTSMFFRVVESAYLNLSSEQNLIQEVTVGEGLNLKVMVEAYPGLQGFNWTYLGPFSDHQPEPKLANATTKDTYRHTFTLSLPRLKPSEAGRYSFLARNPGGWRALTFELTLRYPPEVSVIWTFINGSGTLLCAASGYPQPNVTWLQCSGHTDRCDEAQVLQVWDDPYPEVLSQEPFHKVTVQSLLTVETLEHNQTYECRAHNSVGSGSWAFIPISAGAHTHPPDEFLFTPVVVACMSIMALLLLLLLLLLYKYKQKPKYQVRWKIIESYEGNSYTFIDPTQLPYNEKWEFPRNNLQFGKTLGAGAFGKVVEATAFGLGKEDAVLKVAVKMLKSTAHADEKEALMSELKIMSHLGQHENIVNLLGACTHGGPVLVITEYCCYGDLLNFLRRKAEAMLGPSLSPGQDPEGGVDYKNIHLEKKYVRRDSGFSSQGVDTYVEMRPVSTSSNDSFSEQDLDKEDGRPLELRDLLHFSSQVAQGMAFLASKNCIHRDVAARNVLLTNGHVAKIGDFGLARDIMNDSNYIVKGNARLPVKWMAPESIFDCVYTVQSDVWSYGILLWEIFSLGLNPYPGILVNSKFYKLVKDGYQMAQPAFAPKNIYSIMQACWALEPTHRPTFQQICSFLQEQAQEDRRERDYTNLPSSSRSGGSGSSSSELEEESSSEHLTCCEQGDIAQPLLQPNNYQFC
Procedure, shortened: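 Ligand-induced CSF1R autophosphorylation was measured by MSD sandwich assay: CSF1R-FKBP from lysates captured via FK506, anti-phosphotyrosine readout. Cells were exposed to compound for 2 h (9-point, half-log, 0.5% DMSO) before 5 min 50 ng/mL M-CSF. Reported IC50 is the mean of duplicate-plate IC50s relative to DMSO control.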

PDGFRβ = target: T1, PDGFRβ (Homo sapiens, UniProt P09619); test: Competition binding assay, PDGFRβ Kd
T1 construct: made in house
T1 sequence (P09619 33-1106): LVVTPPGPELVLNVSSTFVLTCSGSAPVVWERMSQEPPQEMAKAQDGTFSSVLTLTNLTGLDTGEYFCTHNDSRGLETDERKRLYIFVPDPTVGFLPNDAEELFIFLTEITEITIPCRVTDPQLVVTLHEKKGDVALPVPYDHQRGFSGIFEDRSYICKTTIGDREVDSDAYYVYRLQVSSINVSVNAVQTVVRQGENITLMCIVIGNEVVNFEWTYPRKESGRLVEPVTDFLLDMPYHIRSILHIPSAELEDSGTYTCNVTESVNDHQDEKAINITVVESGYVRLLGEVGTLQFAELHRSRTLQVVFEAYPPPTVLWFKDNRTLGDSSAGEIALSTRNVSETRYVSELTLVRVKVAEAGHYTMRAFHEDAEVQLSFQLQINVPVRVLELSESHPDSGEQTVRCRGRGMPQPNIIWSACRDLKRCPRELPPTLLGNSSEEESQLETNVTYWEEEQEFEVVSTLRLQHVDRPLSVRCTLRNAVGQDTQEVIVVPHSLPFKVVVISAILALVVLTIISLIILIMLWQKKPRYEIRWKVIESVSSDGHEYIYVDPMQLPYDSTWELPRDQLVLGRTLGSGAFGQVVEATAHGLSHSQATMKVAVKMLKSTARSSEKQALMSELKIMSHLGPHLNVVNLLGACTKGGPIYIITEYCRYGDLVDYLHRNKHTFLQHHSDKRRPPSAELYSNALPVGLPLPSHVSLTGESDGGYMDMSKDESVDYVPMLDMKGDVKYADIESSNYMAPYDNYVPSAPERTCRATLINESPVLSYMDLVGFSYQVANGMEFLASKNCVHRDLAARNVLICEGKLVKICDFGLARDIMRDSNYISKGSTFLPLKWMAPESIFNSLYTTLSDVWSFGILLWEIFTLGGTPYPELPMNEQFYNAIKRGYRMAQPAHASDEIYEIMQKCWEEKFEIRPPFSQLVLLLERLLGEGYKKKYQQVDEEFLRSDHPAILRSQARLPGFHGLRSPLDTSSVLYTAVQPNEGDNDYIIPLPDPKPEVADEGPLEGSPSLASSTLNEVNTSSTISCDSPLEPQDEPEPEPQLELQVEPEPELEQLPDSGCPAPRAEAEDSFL
Procedure, shortened: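 Kd values came from eleven-point threefold dilutions of compound, measured by qPCR of kinase eluted from affinity-ligand beads after 1 h equilibrium binding at room temperature. Kinase was either T7-phage fused or HEK-293-expressed with a DNA tag.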

[1] = Mus musculus, 72 hours incubation, M-CSF 20 ng/mL
[2] = 2 h compound, human M-CSF 50 ng/mL for 5 min
[3] = 72 hours incubation, M-CSF 20 ng/mL
[4] = Mus musculus, M-NFS-60 cell proliferation
[5] = HEK293 cells, M-CSF stimulated CSF1R phosphorylation, MSD

Compound	IC50 (M-NFS-60 cells; [1]) [nM]	IC50 (CSF1R; [2]) [nM]	Kd (PDGFRβ) [nM]	IC50 (M-NFS-60 cells; [3]) [nM]	IC50 (M-NFS-60 cells; [4]) [nM]	IC50 (CSF1R; [5]) [nM]	Kd (PDGFRβ; competition binding) [nM]
ON=C1CCCC[C@H]1Nc1nc2ccc(Cn3cnc4cccnc43)cc2s1 [Example 58, (R)-2-((6-((3H-imidazo[4,5-b]pyridin-3-yl)methyl)benzo[d]thiazol-2-yl)amino)cyclohexanone oxime]	50 to 400	50 to 200	≤ 50	–	–	–	–
either (1S,2R)-2-((6-((3H-imidazo[4,5-b]pyridin-3-yl)methyl)benzo[d]thiazol-2-yl)amino)-1-methylcyclohexanol or (1R,2R)-2-((6-((3H-imidazo[4,5-b]pyridin-3-yl)methyl)benzo[d]thiazol-2-yl)amino)-1-methylcyclohexanol [Example 59]	–	50 to 200	50 to 500	50 to 400	–	–	–
O[C@@H]1CCCC[C@H]1Nc1nc2ccc(Cn3cnc4cccnc43)cc2o1 [Example 56, (1R,2R)-2-((6-((3H-imidazo[4,5-b]pyridin-3-yl)methyl)benzo[d]oxazol-2-yl)amino)cyclohexanol]	50 to 400	50 to 200	≤ 50	–	–	–	–
O[C@@H]1CCCC[C@H]1Nc1nc2ccc(Cn3cnc4cc(N5CCOCC5)ccc43)cc2s1 [Example 209, (1R,2R)-2-((6-((5-morpholino-1H-benzo[d]imidazol-1-yl)methyl)benzo[d]thiazol-2-yl)amino)cyclohexanol]	–	–	–	–	50 to 400	50 to 200	50 to 500
O[C@@H]1Cc2ccccc2[C@H]1Nc1nc2ccc(Cn3cnc4cc(Br)cnc43)cc2s1 [Example 42, (1R,2R)-1-((6-((6-bromo-3H-imidazo[4,5-b]pyridin-3-yl)methyl)benzo[d]thiazol-2-yl)amino)-2,3-dihydro-1H-inden-2-ol]	50 to 400	50 to 200	≤ 50	–	–	–	–
O[C@@H]1CCCC[C@H]1Nc1nc2ccc(Cn3cnc4cncnc43)cc2s1 [Example 48, (1R,2R)-2-((6-((9H-purin-9-yl)methyl)benzo[d]thiazol-2-yl)amino)cyclohexanol]	50 to 400	50 to 200	50 to 500	–	–	–	–
Cn1cc(-c2cn(Cc3ccc4nc(N[C@@H]5CCCC[C@H]5O)sc4c3)cn2)cn1 [Example 36, (1R,2R)-2-((6-((4-(1-methyl-1H-pyrazol-4-yl)-1H-imidazol-1-yl)methyl)benzo[d]thiazol-2-yl)amino)cyclohexanol]	50 to 400	50 to 200	> 2000	–	–	–	–
O[C@@H]1CCCC[C@H]1Nc1nc2ccc(Cc3cnc4[nH]c5ccccc5n34)cc2s1 [Example 205, (1R,2R)-2-((6-((9H-benzo[d]imidazo[1,2-a]imidazol-3-yl)methyl)benzo[d]thiazol-2-yl)amino)cyclohexanol]	–	–	–	–	400 to 1500	> 500	50 to 500
Fc1cnc2c(c1)ncn2Cc1ccc2nc(N[C@@H]3CCCC[C@@H]3Cl)sc2c1 [Example 219, N-((1R,2S)-2-chlorocyclohexyl)-6-((6-fluoro-3H-imidazo[4,5-b]pyridin-3-yl)methyl)benzo[d]thiazol-2-amine]	–	–	–	–	400 to 1500	50 to 200	≤ 50
CS(=O)(=O)c1cnc2c(c1)ncn2Cc1ccc2nc(N[C@@H]3CCCC[C@H]3O)sc2c1 [Example 74, (1R,2R)-2-((6-((6-(methylsulfonyl)-3H-imidazo[4,5-b]pyridin-3-yl)methyl)benzo[d]thiazol-2-yl)amino)cyclohexanol]	50 to 400	50 to 200	50 to 500	–	–	–	–
C=Cc1ccn2c(Cc3ccc4nc(N[C@@H]5CCCC[C@H]5O)sc4c3)cnc2c1 [Example 216, (1R,2R)-2-((6-((7-vinylimidazo[1,2-a]pyridin-3-yl)methyl)benzo[d]thiazol-2-yl)amino)cyclohexanol]	–	–	–	–	50 to 400	50 to 200	50 to 500
O[C@@H]1Cc2ccccc2[C@H]1Nc1nc2ccc(Cn3cnc4ccc(Br)nc43)cc2s1 [Example 80, (1R,2R)-1-((6-((5-bromo-3H-imidazo[4,5-b]pyridin-3-yl)methyl)benzo[d]thiazol-2-yl)amino)-2,3-dihydro-1H-inden-2-ol]	≤ 50	≤ 50	≤ 50	–	–	–	–
COc1cc2ncn(Cc3ccc4nc(N[C@@H]5CCCC[C@H]5O)oc4c3)c2cc1OC [Example 34, (1R,2R)-2-((6-((5,6-dimethoxy-1H-benzo[d]imidazol-1-yl)methyl)benzo[d]oxazol-2-yl)amino)cyclohexanol]	50 to 400	50 to 200	50 to 500	–	–	–	–
OC1CCN(c2ccn3c(Cc4ccc5nc(N[C@@H]6CCCC[C@H]6O)sc5c4)cnc3c2)CC1 [Example 199, 1-(3-((2-(((1R,2R)-2-hydroxycyclohexyl)amino)benzo[d]thiazol-6-yl)methyl)imidazo[1,2-a]pyridin-7-yl)piperidin-4-ol]	–	–	–	–	> 1500	200 to 500	> 2000
O[C@@H]1CCCC[C@H]1Nc1nc2ccc(Cn3cnc4ccc(Br)cc43)cc2s1 [Example 107, (1R,2R)-2-((6-((6-bromo-1H-benzo[d]imidazol-1-yl)methyl)benzo[d]thiazol-2-yl)amino)cyclohexanol]	–	–	–	–	50 to 400	50 to 200	50 to 500
O[C@@H]1CCCC[C@H]1Nc1nc2ccc(Cn3cnc4cc(Br)cnc43)cc2o1 [Example 61, (1R,2R)-2-((6-((6-bromo-3H-imidazo[4,5-b]pyridin-3-yl)methyl)benzo[d]oxazol-2-yl)amino)cyclohexanol]	≤ 50	≤ 50	≤ 50	–	–	–	–
CS(=O)(=O)O.O[C@@H]1CCCC[C@H]1Nc1nc2ccc(Cn3cnc4cccnc43)cc2s1 [Example 3, (1R,2R)-2-((6-((3H-imidazo[4,5-b]pyridin-3-yl)methyl)benzo[d]thiazol-2-yl)amino)cyclohexanol methanesulfonic acid]	50 to 400	50 to 200	50 to 500	–	–	–	–
Cn1cc(-c2cn(Cc3ccc4nc(N[C@@H]5CCCC[C@H]5O)oc4c3)cn2)cn1 [Example 77, (1R,2R)-2-((6-((4-(1-methyl-1H-pyrazol-4-yl)-1H-imidazol-1-yl)methyl)benzo[d]oxazol-2-yl)amino)cyclohexanol]	400 to 1500	50 to 200	500 to 2000	–	–	–	–
C=Cc1cc(F)c2c(c1)ncn2Cc1ccc2nc(N[C@@H]3CCCC[C@H]3O)sc2c1 [Example 207, (1R,2R)-2-((6-((7-fluoro-5-vinyl-1H-benzo[d]imidazol-1-yl)methyl)benzo[d]thiazol-2-yl)amino)cyclohexanol]	–	–	–	–	≤ 50	50 to 200	≤ 50
O[C@@H]1CCCC[C@H]1Nc1nc2ccc(Cn3cnc4cc(C5=CCOCC5)cc(F)c43)cc2s1 [Example 208, (1R,2R)-2-((6-((5-(3,6-dihydro-2H-pyran-4-yl)-7-fluoro-1H-benzo[d]imidazol-1-yl)methyl)benzo[d]thiazol-2-yl)amino)cyclohexanol]	–	–	–	–	≤ 50	50 to 200	≤ 50
O[C@@H]1CCCC[C@H]1Nc1nc2ccc(Cn3cnc4cc(Br)ccc43)cc2s1 [Example 100, (1R,2R)-2-((6-((5-bromo-1H-benzo[d]imidazol-1-yl)methyl)benzo[d]thiazol-2-yl)amino)cyclohexanol]	50 to 400	50 to 200	50 to 500	–	–	–	–
COc1cc2c(cc1Br)ncn2Cc1ccc2nc(N[C@@H]3c4ccccc4C[C@H]3O)sc2c1 [Example 49, (1R,2R)-1-((6-((5-bromo-6-methoxy-1H-benzo[d]imidazol-1-yl)methyl)benzo[d]thiazol-2-yl)amino)-2,3-dihydro-1H-inden-2-ol]	50 to 400	200 to 500	500 to 2000	–	–	–	–
Nc1nccn(Cc2ccc3nc(N[C@@H]4CCCC[C@H]4O)sc3c2)c1=O [Example 220, 3-amino-1-((2-(((1R,2R)-2-hydroxycyclohexyl)amino)benzo[d]thiazol-6-yl)methyl)pyrazin-2(1H)-one acetate salt]	–	–	–	–	> 1500	> 500	50 to 500
either (1R,2R)-1-((6-((4-(1-methyl-1H-pyrazol-4-yl)-1H-imidazol-1-yl)methyl)benzo[d]thiazol-2-yl)amino)-2,3-dihydro-1H-inden-2-ol or (1R,2R)-1-((6-((5-(1-methyl-1H-pyrazol-4-yl)-1H-imidazol-1-yl)methyl)benzo[d]thiazol-2-yl)amino)-2,3-dihydro-1H-inden-2-ol [Example 83]	–	50 to 200	50 to 500	50 to 400	–	–	–
O[C@@H]1CCCC[C@H]1Nc1nc2ccc(Cc3cnc4ccccn34)cc2s1 [Example 38, (1R,2R)-2-((6-(imidazo[1,2-a]pyridin-3-ylmethyl)benzo[d]thiazol-2-yl)amino)cyclohexanol]	400 to 1500	200 to 500	> 2000	–	–	–	–
COc1cc2c(cc1C#N)ncn2Cc1ccc2nc(N[C@@H]3CCCC[C@H]3O)sc2c1 [Example 65, 1-((2-(((1R,2R)-2-hydroxycyclohexyl)amino)benzo[d]thiazol-6-yl)methyl)-6-methoxy-1H-benzo[d]imidazole-5-carbonitrile]	50 to 400	50 to 200	> 2000	–	–	–	–

From patent US9938261B2, “Heterocyclic compounds and methods of use thereof” (AMBIT BIOSCIENCES CORPORATION, priority 2011, dated 2018)
